Assays:
Assay in all cases: Test B pre-/postemergence
Format in all cases: in vivo
Design in all cases: key: 0 is no effect; 10 is complete control
[1] = test system: bedstraw (Galium aparine); details: for Bedstraw plant response rating: Preemergence
Outline: (§1)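 Scored visually 0 (none) to 10 (complete control) against untreated plants after twelve to sixteen greenhouse days. Test chemicals, formulated in surfactant-containing non-phytotoxic solvent, applied to soil after planting and, separately, onto 1- to 4-leaf (2–18 cm) plants.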

[2] = test system: cocklebur (Xanthium strumarium); details: for Cocklebur plant response rating: Preemergence
Outline: as §1

corn (Zea mays) = details: for Corn plant response rating: Preemergence
Outline: as §1

[3] = test system: crabgrass (Digitaria sanguinalis); details: for Crabgrass plant response rating: Preemergence
Outline: as §1

[4] = test system: giant foxtail (Setaria faberii)
Outline: as §1

[5] = test system: momingglory (Ipomoea hederacea)
Outline: as §1

[6] = test system: pigweed (Amaranthus retroflexus)
Outline: as §1

[7] = test system: purple nutsedge (Cyperus rotundus)
Outline: as §1

rape (Brassica napus) = test system: rape (Brassica napus)
Outline: as §1

soybean (Glycine max) = test system: soybean (Glycine max)
Outline: as §1

[8] = test system: sugar beet (Beta vulgaris)
Outline: as §1

[9] = test system: velvetleaf (Abutilon theophrasti)
Outline: as §1

[10] = test system: wheat (Triticum aestivum)
Outline: as §1

wild oat (Avena fatua) = test system: wild oat (Avena fatua)
Outline: as §1

[11] = Rate 250 g/ha, Postemergence (so in the source)

Cc1cnc(-n2cnc(C(F)(F)F)c2)nc1Cc1cccc(C(F)(F)F)c1 [Compound 44]
8: Plant response rating, Bedstraw ([1]; Rate 62 g/ha, Postemergence) | Plant response rating, Cocklebur ([2]; Rate 62 g/ha, Postemergence) | Plant response rating, Cocklebur [2, 11] | Morningglory plant response rating ([5]; Rate 62 g/ha, Preemergence) | Rape plant response rating (rape (Brassica napus); Rate 125 g/ha, Preemergence) | Plant response rating, Velvetleaf ([9]; Rate 62 g/ha, Postemergence) | Velvetleaf plant response rating ([9]; Rate 62 g/ha, Preemergence) | Velvetleaf plant response rating ([9]; Rate 125 g/ha, Postemergence)
4: Bedstraw plant response rating ([1]; Rate 62 g/ha) | Crabgrass plant response rating ([3]; Rate 62 g/ha) | Plant response rating, Crabgrass ([3]; Rate 125 g/ha, Postemergence) | Crabgrass plant response rating ([3]; Rate 125 g/ha) | Giant foxtail plant response rating ([4]; Rate 62 g/ha, Preemergence) | Rape plant response rating (rape (Brassica napus); Rate 62 g/ha, Preemergence) | Wild oats plant response rating (wild oat (Avena fatua); Rate 62 g/ha, Postemergence) | Wild oats plant response rating (wild oat (Avena fatua); Rate 125 g/ha, Postemergence)
10: Plant response rating, Bedstraw [1, 11] | Plant response rating, Morningglory ([5]; Rate 62 g/ha, Postemergence) | Plant response rating, Morningglory ([5]; Rate 250 g/ha, Postemergence) | Plant response rating, Morningglory [5, 11] | Redroot pigweed plant response rating ([6]; Rate 125 g/ha, Postemergence) | Plant response rating, Redroot pigweed ([6]; Rate 250 g/ha, Postemergence) | Plant response rating, Redroot pigweed [6, 11] | Rape plant response rating (rape (Brassica napus); Rate 125 g/ha, Postemergence) | Plant response rating, Rape (rape (Brassica napus); Rate 250 g/ha, Postemergence) | Plant response rating, Rape (rape (Brassica napus); [11]) | Plant response rating, Sugarbeets ([8]; Rate 62 g/ha, Postemergence) | Sugarbeets plant response rating ([8]; Rate 125 g/ha, Postemergence) | Plant response rating, Sugarbeets ([8]; Rate 125 g/ha, Preemergence) | Plant response rating, Sugarbeets ([8]; Rate 250 g/ha, Postemergence) | Plant response rating, Sugarbeets [8, 11] | Plant response rating, Velvetleaf ([9]; Rate 125 g/ha, Preemergence) | Plant response rating, Velvetleaf [9, 11]
6: Soybean plant response rating (soybean (Glycine max); Rate 125 g/ha, Postemergence) | Plant response rating, Soybean (soybean (Glycine max); Rate 250 g/ha, Postemergence) | Wild oats plant response rating (wild oat (Avena fatua); Rate 62 g/ha, Preemergence)
7: Plant response rating, Crabgrass ([3]; Rate 250 g/ha, Postemergence) | Giant foxtail plant response rating ([4]; Rate 125 g/ha, Postemergence) | Redroot pigweed plant response rating ([6]; Rate 62 g/ha, Preemergence) | Plant response rating, Wild oats (wild oat (Avena fatua); Rate 125 g/ha, Preemergence)
9: Plant response rating, Bedstraw ([1]; Rate 125 g/ha, Postemergence) | Plant response rating, Bedstraw ([1]; Rate 250 g/ha, Postemergence) | Plant response rating, Cocklebur ([2]; Rate 125 g/ha, Postemergence) | Plant response rating, Cocklebur ([2]; Rate 250 g/ha, Postemergence) | Plant response rating, Crabgrass [3, 11] | Plant response rating, Giant foxtail ([4]; Rate 250 g/ha, Postemergence) | Plant response rating, Giant foxtail [4, 11] | Morningglory plant response rating ([5]; Rate 125 g/ha, Preemergence) | Plant response rating, Redroot pigweed ([6]; Rate 62 g/ha, Postemergence) | Redroot pigweed plant response rating ([6]; Rate 125 g/ha, Preemergence) | Plant response rating, Rape (rape (Brassica napus); Rate 62 g/ha, Postemergence) | Sugarbeets plant response rating ([8]; Rate 62 g/ha, Preemergence) | Plant response rating, Velvetleaf ([9]; Rate 250 g/ha, Postemergence) | Plant response rating, Wild oats (wild oat (Avena fatua); [11])
5: Bedstraw plant response rating ([1]; Rate 125 g/ha) | Cocklebur plant response rating ([2]; Rate 125 g/ha) | Giant foxtail plant response rating ([4]; Rate 125 g/ha, Preemergence) | Plant response rating, Soybean (soybean (Glycine max); Rate 62 g/ha, Postemergence) | Plant response rating, Wild oats (wild oat (Avena fatua); Rate 250 g/ha, Postemergence)
2: Cocklebur plant response rating ([2]; Rate 62 g/ha) | Plant response rating, Giant foxtail ([4]; Rate 62 g/ha, Postemergence) | Nutsedge plant response rating ([7]; Rate 62 g/ha, Preemergence) | Nutsedge plant response rating ([7]; Rate 125 g/ha, Postemergence) | Plant response rating, Soybean (soybean (Glycine max); Rate 125 g/ha, Preemergence) | Plant response rating, Soybean (soybean (Glycine max); [11])
0: Corn plant response rating (corn (Zea mays); Rate 62 g/ha) | Soybean plant response rating (soybean (Glycine max); Rate 62 g/ha, Preemergence) | Wheat plant response rating ([10]; Rate 62 g/ha, Preemergence)
1: Corn plant response rating (corn (Zea mays); Rate 125 g/ha) | Plant response rating, Corn (corn (Zea mays); [11]) | Plant response rating, Nutsedge ([7]; Rate 62 g/ha, Postemergence) | Plant response rating, Wheat ([10]; Rate 125 g/ha, Preemergence)
3: Plant response rating, Corn (corn (Zea mays); Rate 62 g/ha, Postemergence) | Plant response rating, Corn (corn (Zea mays); Rate 125 g/ha, Postemergence) | Plant response rating, Corn (corn (Zea mays); Rate 250 g/ha, Postemergence) | Plant response rating, Crabgrass ([3]; Rate 62 g/ha, Postemergence) | Plant response rating, Nutsedge ([7]; Rate 250 g/ha, Postemergence) | Wheat plant response rating ([10]; Rate 62 g/ha, Postemergence) | Wheat plant response rating ([10]; Rate 125 g/ha, Postemergence) | Plant response rating, Wheat ([10]; Rate 250 g/ha, Postemergence) | Plant response rating, Wheat [10, 11]

CCc1cnc(-n2ccc(C(F)(F)F)n2)nc1Cc1cccc(C(F)(F)F)c1 [Compound 46]
9: Plant response rating, Bedstraw ([1]; Rate 125 g/ha, Postemergence) | Bedstraw plant response rating ([1]; Rate 125 g/ha) | Plant response rating, Cocklebur ([2]; Rate 125 g/ha, Postemergence) | Plant response rating, Cocklebur ([2]; Rate 250 g/ha, Postemergence) | Crabgrass plant response rating ([3]; Rate 62 g/ha) | Crabgrass plant response rating ([3]; Rate 125 g/ha) | Giant foxtail plant response rating ([4]; Rate 62 g/ha, Preemergence) | Giant foxtail plant response rating ([4]; Rate 125 g/ha, Preemergence) | Plant response rating, Morningglory ([5]; Rate 62 g/ha, Postemergence) | Plant response rating, Redroot pigweed ([6]; Rate 62 g/ha, Postemergence) | Redroot pigweed plant response rating ([6]; Rate 125 g/ha, Postemergence) | Plant response rating, Rape (rape (Brassica napus); Rate 62 g/ha, Postemergence) | Rape plant response rating (rape (Brassica napus); Rate 62 g/ha, Preemergence) | Rape plant response rating (rape (Brassica napus); Rate 125 g/ha, Postemergence) | Rape plant response rating (rape (Brassica napus); Rate 125 g/ha, Preemergence) | Plant response rating, Rape (rape (Brassica napus); Rate 250 g/ha, Postemergence) | Plant response rating, Soybean (soybean (Glycine max); Rate 250 g/ha, Postemergence) | Plant response rating, Velvetleaf ([9]; Rate 62 g/ha, Postemergence) | Velvetleaf plant response rating ([9]; Rate 125 g/ha, Postemergence) | Plant response rating, Velvetleaf ([9]; Rate 250 g/ha, Postemergence) | Plant response rating, Wild oats (wild oat (Avena fatua); [11])
6: Plant response rating, Crabgrass ([3]; Rate 62 g/ha, Postemergence) | Plant response rating, Crabgrass ([3]; Rate 125 g/ha, Postemergence) | Wild oats plant response rating (wild oat (Avena fatua); Rate 62 g/ha, Preemergence)
5: Plant response rating, Wheat [10, 11]
3: Plant response rating, Corn (corn (Zea mays); Rate 250 g/ha, Postemergence) | Plant response rating, Corn (corn (Zea mays); [11]) | Plant response rating, Giant foxtail ([4]; Rate 62 g/ha, Postemergence) | Plant response rating, Soybean (soybean (Glycine max); Rate 125 g/ha, Preemergence) | Wheat plant response rating ([10]; Rate 62 g/ha, Postemergence) | Wheat plant response rating ([10]; Rate 125 g/ha, Postemergence) | Plant response rating, Wheat ([10]; Rate 125 g/ha, Preemergence) | Wild oats plant response rating (wild oat (Avena fatua); Rate 62 g/ha, Postemergence)
10: Plant response rating, Bedstraw ([1]; Rate 250 g/ha, Postemergence) | Plant response rating, Bedstraw [1, 11] | Cocklebur plant response rating ([2]; Rate 62 g/ha) | Plant response rating, Crabgrass [3, 11] | Plant response rating, Giant foxtail [4, 11] | Morningglory plant response rating ([5]; Rate 62 g/ha, Preemergence) | Morningglory plant response rating ([5]; Rate 125 g/ha, Postemergence) | Morningglory plant response rating ([5]; Rate 125 g/ha, Preemergence) | Plant response rating, Morningglory ([5]; Rate 250 g/ha, Postemergence) | Plant response rating, Morningglory [5, 11] | Redroot pigweed plant response rating ([6]; Rate 62 g/ha, Preemergence) | Redroot pigweed plant response rating ([6]; Rate 125 g/ha, Preemergence) | Plant response rating, Redroot pigweed ([6]; Rate 250 g/ha, Postemergence) | Plant response rating, Redroot pigweed [6, 11] | Plant response rating, Rape (rape (Brassica napus); [11]) | Plant response rating, Sugarbeets ([8]; Rate 62 g/ha, Postemergence) | Sugarbeets plant response rating ([8]; Rate 62 g/ha, Preemergence) | Sugarbeets plant response rating ([8]; Rate 125 g/ha, Postemergence) | Plant response rating, Sugarbeets ([8]; Rate 125 g/ha, Preemergence) | Plant response rating, Sugarbeets ([8]; Rate 250 g/ha, Postemergence) | Plant response rating, Sugarbeets [8, 11] | Velvetleaf plant response rating ([9]; Rate 62 g/ha, Preemergence) | Plant response rating, Velvetleaf ([9]; Rate 125 g/ha, Preemergence) | Plant response rating, Velvetleaf [9, 11]
2: Plant response rating, Corn (corn (Zea mays); Rate 62 g/ha, Postemergence) | Plant response rating, Corn (corn (Zea mays); Rate 125 g/ha, Postemergence) | Plant response rating, Nutsedge ([7]; Rate 62 g/ha, Postemergence)
1: Corn plant response rating (corn (Zea mays); Rate 125 g/ha) | Soybean plant response rating (soybean (Glycine max); Rate 62 g/ha, Preemergence) | Wheat plant response rating ([10]; Rate 62 g/ha, Preemergence)
8: Plant response rating, Bedstraw ([1]; Rate 62 g/ha, Postemergence) | Bedstraw plant response rating ([1]; Rate 62 g/ha) | Plant response rating, Cocklebur ([2]; Rate 62 g/ha, Postemergence) | Plant response rating, Crabgrass ([3]; Rate 250 g/ha, Postemergence) | Plant response rating, Soybean (soybean (Glycine max); Rate 62 g/ha, Postemergence) | Soybean plant response rating (soybean (Glycine max); Rate 125 g/ha, Postemergence) | Plant response rating, Wild oats (wild oat (Avena fatua); Rate 125 g/ha, Preemergence)
4: Giant foxtail plant response rating ([4]; Rate 125 g/ha, Postemergence) | Plant response rating, Wheat ([10]; Rate 250 g/ha, Postemergence) | Wild oats plant response rating (wild oat (Avena fatua); Rate 125 g/ha, Postemergence) | Plant response rating, Wild oats (wild oat (Avena fatua); Rate 250 g/ha, Postemergence)
0: Corn plant response rating (corn (Zea mays); Rate 62 g/ha) | Nutsedge plant response rating ([7]; Rate 125 g/ha, Preemergence) | Plant response rating, Nutsedge [7, 11]
7: Plant response rating, Giant foxtail ([4]; Rate 250 g/ha, Postemergence) | Plant response rating, Soybean (soybean (Glycine max); [11])

From patent US6525001B1, “Substituted pyrimidine and pyridine herbicides” (Mid-American Commercialization Corporation, priority 1997, dated 2003)
